Holding throughout (experiment): Cytotoxicity assay of camptothecin derivative toxins (Example A')
Assay type in all cases: cell-based

In assay [1] the test system is human colon cancer cell line HCT116. The note with it: read-out: IC50 (nM) HCT116. The method, then: (§1) The camptothecin derivatives of the Examples of the present application were serially diluted with DMSO and the corresponding cell culture medium, and were added into a white-walled 96-well plate. Tumor cells (human ovarian cancer cell line SK-OV-3; human colon cancer cell line HCT116; human lung adenocarcinoma cell line A549; human lung adenocarcinoma cell line NCI-H441; human oral epidermoid carcinoma cell line KB) in logarithmic growth phase were digested and adjusted to a density of approximately 3.33×10^4 cells/mL. The cells were plated at 90 µL/well on the white-walled 96-well plate that was pre-loaded with the samples, followed by incubation at 37° C. in a 5% CO2 incubator for 3 days. The growth inhibitory effect of the small molecule compounds on tumor cells was evaluated by the Cell Titer Turbo 2.0 Luminescent Cell Viability Assay (Damas life, RA-GL11). Relative light unit (RLU) values were read from the cell culture plates using a microplate reader. Experimental data were analyzed with GraphPad Prism 8.0 software to calculate IC50 values.

The test system of assay [2] is human lung adenocarcinoma cell line A549. Conditions: read-out: IC50 (nM) A549. The procedure: as §1
Assay [3] has as its system human lung adenocarcinoma cell line NCI-H441. The note with it: read-out: IC50 (nM) NCI-H441. The procedure: as §1
The subject of assay [4] is human ovarian cancer cell line SK-OV-3. Conditions: read-out: IC50 (nM) SK-OV-3. The method, then: as §1
Where [5] appears, read: Homo sapiens, HCT-116, 72 h, Example A', 3 days incubation.
[6] abbreviates: Homo sapiens, A549, 72 h, Example A', 3 days incubation.
[7] abbreviates: Homo sapiens, NCI-H441, 72 h, Example A', 3 days incubation.
The mark [8] stands for this setting: Homo sapiens, SK-OV-3, 72 h, Example A', 3 days incubation.

Read-outs that look alike come from different tables or passages of the source.

Turning to `CC[C@@]1(O)C(=O)OCc2c1cc1n(c2=O)Cc2c-1nc1cc(F)c(C)cc1c2NCCCCCO` [STI-F17, (S)-4-ethyl-8-fluoro-4-hydroxy-11-((5-hydroxypentyl)amino)-9-methyl-1,12-dihydro-14H-pyrano[3′,4′:6,7]indolizino[1,2-b]quinoline-3,14(4H)-dione], the IC50 (commonly the concentration that inhibits the measured activity by half) in assay [1] (setting [5]) turned out to be 17.2 nM; in assay [2] (setting [6]), 377 nM; in assay [3] (setting [7]) it was 28.7 nM; in assay [4] (setting [8]) it was 20 nM.

Consider `CC[C@@]1(O)C(=O)OCc2c1cc1n(c2=O)Cc2c-1nc1cc(F)c(C)cc1c2N[C@H]1CC[C@H](CO)CC1` [STI-F15, (S)-4-ethyl-8-fluoro-4-hydroxy-11-(((1r,4S)-4-(hydroxymethyl)cyclohexyl)amino)-9-methyl-1,12-dihydro-14H-pyrano[3′,4′:6,7]indolizino[1,2-b]quinoline-3,14(4H)-dione], for which the IC50 in assay [1] (Example A', 3 days incubation) is 22.6 nM; in assay [2] (Example A', 3 days incubation), 542 nM; in assay [3] (Example A', 3 days incubation), 50.9 nM; in assay [4] (Example A', 3 days incubation) it was 28.7 nM.

For the compound `CC[C@@]1(O)C(=O)OCc2c1cc1n(c2=O)Cc2c-1nc1cc3c(cc1c2NCCCCO)OCO3` [STI-F18, (S)-7-ethyl-7-hydroxy-14-((4-hydroxybutyl)amino)-10,13-dihydro-11H-[1,3]dioxolo[4,5-g]pyrano[3′,4′:6,7]indolizino[1,2-b]quinoline-8,11(7H)-dione], the IC50 in assay [1] (Homo sapiens, HCT-116, 72 h) came to 58.7 nM; in assay [2] (Homo sapiens, A549, 72 h), 454 nM; in assay [3] (Homo sapiens, NCI-H441, 72 h), 42 nM; in assay [4] (Homo sapiens, SK-OV-3, 72 h), 44.6 nM.

In the case of `CC[C@@]1(O)C(=O)OCc2c1cc1n(c2=O)Cc2c-1nc1cc(F)c(C)cc1c2NCCO` [STI-F5, (S)-4-ethyl-8-fluoro-4-hydroxy-11-((2-hydroxyethyl)amino)-9-methyl-1,12-dihydro-14H-pyrano[3′,4′:6,7]indolizino[1,2-b]quinoline-3,14(4H)-dione], the IC50 in assay [1] (setting [5]) came out at 19 nM; in assay [2] (setting [6]), 387 nM; in assay [3] (setting [7]), 32.3 nM; in assay [4] (setting [8]) it was 16.9 nM.

Regarding `CCCCCc1c2c(nc3cc(F)c(NC(=O)CO)cc13)-c1cc3c(c(=O)n1C2)COC(=O)[C@]3(O)CC` [STI-G5, (S)—N-(4-ethyl-8-fluoro-4-hydroxy-3,14-dioxo-11-pentyl-3,4,12,14-tetrahydro-1H-pyrano[3′,4′:6,7]indolizino[1,2-b]quinolin-9-yl)-2-hydroxyacetamide], the values for the IC50 in assay [3] (setting [7]) and in assay [4] (setting [8]) were 2.22 nM and 10.3 nM, respectively.

For the compound `CC[C@@]1(O)C(=O)OCc2c1cc1n(c2=O)Cc2c-1nc1cc(F)c(C)cc1c2NC/C=C/CO` [STI-F8, (S,E)-4-ethyl-8-fluoro-4-hydroxy-11-((4-hydroxybut-2-en-1-yl)amino)-9-methyl-1,12-dihydro-14H-pyrano[3′,4′:6,7]indolizino[1,2-b]quinoline-3,14(4H)-dione], the IC50 was 11.4 nM in assay [1] (setting [5]), 278 nM in assay [2] (setting [6]), 24.9 nM in assay [3] (setting [7]) and 12.3 nM in assay [4] (setting [8]).

Take `CC[C@@]1(O)C(=O)OCc2c1cc1n(c2=O)Cc2c-1nc1cc(F)c(C)cc1c2N1CCC(CO)CC1` [STI-F14, (S)-4-ethyl-8-fluoro-4-hydroxy-11-(4-(hydroxymethyl)piperidin-1-yl)-9-methyl-1,12-dihydro-14H-pyrano[3′,4′:6,7]indolizino[1,2-b]quinoline-3,14(4H)-dione]: the results for the IC50 in assay [1] (setting [5]), in assay [2] (setting [6]) and in assay [3] (setting [7]) were 12.4 nM, 156 nM and 11.1 nM, respectively.

Source of the values: patent publication US20260102507A1, “CAMPTOTHECIN DERIVATIVE FOR TREATING OR PREVENTING CANCER AND ANTIBODY-DRUG CONJUGATE THEREOF” (CHENGDU BRILLIANT PHARMACEUTICAL CO., LTD., priority 2023, published 2026).
